Laboratory results published in patent US20220056018A1, “SREBP INHIBITORS COMPRISING A THIOPHENE CENTRAL RING” (Capulus Therapeutics, LLC, priority 2019, published 2022).

Tests used:
Test in all cases: Cancer cell growth inhibition
Format in all cases: cell-based
JAR = JAR (placenta), 72 hr treatment
Method: (§1) The ability of select compounds to inhibit cell growth in various cancer cell lines are evaluated. […] The cell lines shown in Table 2 have reduced growth by at least 50% at 10 uM or lower over 72 hr treatment in growth media. The cell lines shown in Table 3 have reduced growth by at least 50% with an IC50 greater than 10 uM.
(§2) Six 10-fold compound dilutions are prepared in DMSO (e.g. 10 mM, 1 mM, 100 uM, 10 uM, 1 uM, and 0.1 uM). Single data points are acquired for each concentration. The final concentration of DMSO is 0.1%. The duration of the treatment is 72 hr. Growth inhibition is measured using Sulforhodamine B in a protein staining assay. Activity of the agents is determined by evaluation the following parameters: IC50, GI50, IC10, TGI, LC50, IC90, and GI90 (where these values can be calculated).

MDAMB435 = details: Homo sapiens, MDA-MB-435; MDAMB435 (skin), 72 hr treatment
Method: as §1, §2

CALU6 = details: Homo sapiens, Calu-6; CALU6 (lung), 72 hr treatment
Method: as §1, §2

22RV1 = details: Homo sapiens; 22RV1 (prostate), 72 hr treatment
Method: as §1, §2

T24 = details: Homo sapiens, T-24; T24 (bladder), 72 hr treatment
Method: as §1, §2

UMUC3 = details: Homo sapiens; UMUC3 (bladder), 72 hr treatment
Method: as §1, §2

CLS439 = CLS439 (bladder), 72 hr treatment
Method: as §1, §2

NCIH82 = details: Homo sapiens, NCI-H82; NCIH82 (lung), 72 hr treatment
Method: as §1, §2

RDES = details: RD-ES; RDES (bone), 72 hr treatment
Method: as §1, §2

HS578T = details: Homo sapiens, Hs-578T; HS578T (breast), 72 hr treatment
Method: as §1, §2

SW620 = details: Homo sapiens, SW-620; SW620 (colon), 72 hr treatment
Method: as §1, §2

UO31 = details: Homo sapiens, UO-31; UO31 (kidney), 72 hr treatment
Method: as §1, §2

SKLMS1 = details: Homo sapiens, SK-LMS-1; SKLMS1 (uterus), 72 hr treatment
Method: as §1, §2

C33A = details: Homo sapiens, C-33-A; C33A (endometrial), 72 hr treatment
Method: as §1, §2

HS729 = HS729 (muscle), 72 hr treatment
Method: as §1, §2

HL-60 = details: Homo sapiens; HL-60 (hematological), 72 hr treatment
Method: as §1, §2

THP-1 = details: Homo sapiens; THP-1 (hematological), 72 hr treatment
Method: as §1, §2

HELA = details: Homo sapiens; HELA (endometrial), 72 hr treatment
Method: as §1, §2

OVCAR4 = details: Homo sapiens, OVCAR-4; OVCAR4 (ovary), 72 hr treatment
Method: as §1, §2

IMR90 = details: Homo sapiens, IMR-90; IMR90 (lung), 72 hr treatment
Method: as §1, §2

EFO21 = details: Homo sapiens, EFO-21; EFO21 (ovary), 72 hr treatment
Method: as §1, §2

A673 = details: Homo sapiens; A673 (muscle), 72 hr treatment
Method: as §1, §2

CASKI = details: Homo sapiens, Ca-Ski; CASKI (endometrial), 72 hr treatment
Method: as §1, §2

SKOV3 = details: Homo sapiens, SK-OV-3; SKOV3 (ovary), 72 hr treatment
Method: as §1, §2

U2OS = details: Homo sapiens; U2OS (bone), 72 hr treatment
Method: as §1, §2

MIAPACA2 = details: Homo sapiens, MIA PaCa-2; MIAPACA2 (pancreas), 72 hr treatment
Method: as §1, §2

SF268 = details: Homo sapiens, SF-268; SF268 (brain), 72 hr treatment
Method: as §1, §2

WSU-NHL = details: Homo sapiens; WSU-NHL (hematological), 72 hr treatment
Method: as §1, §2

PANC1 = details: Homo sapiens, PANC-1; PANC1 (pancreas), 72 hr treatment
Method: as §1, §2

LOVO = details: Homo sapiens; LOVO (colon), 72 hr treatment
Method: as §1, §2

MV4-11 = details: Homo sapiens; MV4-11 (hematological), 72 hr treatment
Method: as §1, §2

IC50 (JAR)	IC50 (MDAMB435)	IC50 (CALU6)	IC50 (22RV1)	IC50 (T24)	IC50 (UMUC3)	IC50 (CLS439)	IC50 (NCIH82)	IC50 (RDES)	IC50 (HS578T)	IC50 (SW620)	IC50 (UO31)	IC50 (SKLMS1)	IC50 (C33A)	IC50 (HS729)	IC50 (HL-60)	IC50 (THP-1)	IC50 (HELA)	IC50 (OVCAR4)	IC50 (IMR90)	Structure (SMILES)	also measured
< 10 µM	< 10 µM	< 10 µM	< 10 µM	> 10 µM	< 10 µM	> 10 µM	< 10 µM	> 10 µM	> 10 µM	> 10 µM	> 10 µM	> 10 µM	< 10 µM	> 10 µM	< 10 µM	< 10 µM	< 10 µM	< 10 µM	> 10 µM	CC(C)(O)Cc1cc(-c2csc(-c3ccc(NS(C)(=O)=O)cc3Cl)c2)ccn1 [Compound I-9004, N-(3-chloro-4-(4-(2-(2-hydroxy-2-methylpropyl)pyridin-4-yl)thiophen-2-yl)phenyl)methanesulfonamide]	IC50 (EFO21): < 10 µM; IC50 (A673): > 10 µM; IC50 (CASKI): > 10 µM; IC50 (SKOV3): > 10 µM; IC50 (U2OS): > 10 µM; IC50 (MIAPACA2): > 10 µM; IC50 (SF268): < 10 µM; IC50 (WSU-NHL): < 10 µM; IC50 (PANC1): < 10 µM; IC50 (LOVO): < 10 µM; IC50 (MV4-11): < 10 µM
< 10 µM	> 10 µM	< 10 µM	< 10 µM	> 10 µM	< 10 µM	> 10 µM	< 10 µM	> 10 µM	> 10 µM	> 10 µM	> 10 µM	> 10 µM	< 10 µM	> 10 µM	< 10 µM	< 10 µM	< 10 µM	< 10 µM	> 10 µM	CC(C)(CO)c1cc(-c2csc(-c3ccc(NS(C)(=O)=O)cc3Cl)c2)ccn1 [Compound I-8909, N-(3-chloro-4-(4-(2-(1-hydroxy-2-methylpropan-2-yl)pyridin-4-yl)thiophen-2-yl)phenyl)methanesulfonamide]	IC50 (EFO21): < 10 µM; IC50 (A673): > 10 µM; IC50 (CASKI): > 10 µM; IC50 (SKOV3): > 10 µM; IC50 (U2OS): > 10 µM; IC50 (MIAPACA2): > 10 µM; IC50 (SF268): < 10 µM; IC50 (WSU-NHL): < 10 µM; IC50 (PANC1): < 10 µM; IC50 (LOVO): < 10 µM; IC50 (MV4-11): < 10 µM
< 10 µM	> 10 µM	< 10 µM	< 10 µM	< 10 µM	< 10 µM	< 10 µM	< 10 µM	< 10 µM	> 10 µM	< 10 µM	< 10 µM	> 10 µM	< 10 µM	> 10 µM	< 10 µM	< 10 µM	< 10 µM	< 10 µM	> 10 µM	CS(=O)(=O)Nc1ccc(-c2cc(-c3ccnc4c3OCCO4)cs2)c(Cl)c1 [Compound I-9017, N-(3-chloro-4-(4-(2,3-dihydro-[1,4]dioxino[2,3-b]pyridin-8-yl)thiophen-2-yl)phenyl)methanesulfonamide]	IC50 (EFO21): < 10 µM; IC50 (A673): < 10 µM; IC50 (CASKI): > 10 µM; IC50 (SKOV3): < 10 µM; IC50 (U2OS): < 10 µM; IC50 (MIAPACA2): < 10 µM; IC50 (SF268): < 10 µM; IC50 (WSU-NHL): < 10 µM; IC50 (PANC1): < 10 µM; IC50 (LOVO): < 10 µM; IC50 (MV4-11): < 10 µM
